The values that follow come from patent US5593984A, “Cephalosporin derivatives” (Yuhan Corporation, priority 1992, dated 1997).

SMILES strings stand for the structures. Values after ≈ are worked out from the molar mass of the structure shown.

Holding throughout (type): cell-based
One assay deals with Ps. aeruginosa DY-2. The assay is described as follows: MIC by agar dilution, Ps. aeruginosa DY-2. Conditions: Pseudomonas aeruginosa, DY2, 17 h; Ps. aeruginosa DY-2; agar dilution, Mueller-Hinton agar; read-out: Minimal Inhibitory Concentration (MIC). An outline of the steps:
(§1)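 Strains at 10^6 CFU/ml are spotted onto Mueller-Hinton agar holding two-fold serial compound dilutions, then held 17±1 hours at 35°-37° C. Ceftazidime and cefotaxime are run as reference compounds.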
For orientation: In agar dilution, organisms are placed on agar that contains the substance at set levels.

A further assay relates to Staph. aureus Smith. The assay is described as follows: MIC by agar dilution, Staph. aureus Smith. Conditions: Staphylococcus aureus, 17 h, Mueller-Hinton agar, read-out: Minimal Inhibitory Concentration (MIC). In outline: as §1
The test system of another assay is Prov. stuartii IFO 12930. The assay is described as follows: MIC by agar dilution, Prov. stuartii IFO 12930. Particulars: Providencia stuartii, IFO12930, 17 h, Mueller-Hinton agar, read-out: Minimal Inhibitory Concentration (MIC). In outline:
as §1

A further assay deals with Staph. aureus C-5113. The assay is described as follows: MIC by agar dilution, Staph. aureus C-5113. Particulars: Staphylococcus aureus, C5113, 17 h, Mueller-Hinton agar, read-out: Minimal Inhibitory Concentration (MIC). In outline: as §1
The test system of assay [1] is S. epidermidis ATCC 12228. The assay is described as follows: MIC by agar dilution, S. epidermidis ATCC 12228. Particulars: Staphylococcus epidermidis, ATCC12228, 17 h; S. epidermidis ATCC 12228; agar dilution, Mueller-Hinton agar; read-out: Minimal Inhibitory Concentration (MIC). An outline of the steps: as §1
Another assay relates to Staph. aureus ATCC 6538P. The assay is described as follows: MIC by agar dilution, Staph. aureus ATCC 6538P. Conditions: Staphylococcus aureus, ATCC6538P, 17 h; Staph. aureus ATCC 6538P; agar dilution, Mueller-Hinton agar; read-out: Minimal Inhibitory Concentration (MIC). In outline: as §1
Another assay relates to Staph. aureus C-57. Description: MIC by agar dilution, Staph. aureus C-57. Conditions: Staphylococcus aureus, C57, 17 h, Mueller-Hinton agar, read-out: Minimal Inhibitory Concentration (MIC). An outline of the steps:
as §1

In another assay the test system is B. subtilis ATCC 6633. The assay is described as follows: MIC by agar dilution, B. subtilis ATCC 6633. Conditions: Bacillus subtilis, ATCC6633, 17 h; B. subtilis ATCC 6633; agar dilution, Mueller-Hinton agar; read-out: Minimal Inhibitory Concentration (MIC). In outline:
as §1

Another assay deals with Ent. aerogenes IFO 12979. The assay is described as follows: MIC by agar dilution, Ent. aerogenes IFO 12979. Conditions: Klebsiella aerogenes, IFO12979, 17 h, Mueller-Hinton agar, read-out: Minimal Inhibitory Concentration (MIC). In outline:
as §1

The subject of the next assay is Staph. aureus C-5216. The assay is described as follows: MIC by agar dilution, Staph. aureus C-5216. Conditions: Staphylococcus aureus, C5216, 17 h, Mueller-Hinton agar, read-out: Minimal Inhibitory Concentration (MIC). An outline of the steps:
as §1

The next assay concerns E. coli No. 29. The assay is described as follows: MIC by agar dilution, E. coli No. 29. Particulars: Escherichia coli, 17 h; E. coli No. 29; agar dilution, Mueller-Hinton agar; read-out: Minimal Inhibitory Concentration (MIC). In outline: as §1
The next assay relates to P. vulgaris NCTC 8313. Description: MIC by agar dilution, P. vulgaris NCTC 8313. Particulars: Proteus vulgaris, NCTC8313, 17 h; P. vulgaris NCTC 8313; agar dilution, Mueller-Hinton agar; read-out: Minimal Inhibitory Concentration (MIC). In outline:
as §1

Assay [2] deals with Ps. aeruginosa NCTC 10490. Description: MIC by agar dilution, Ps. aeruginosa NCTC 10490. Particulars: Pseudomonas aeruginosa, NCTC10490, 17 h, Mueller-Hinton agar, read-out: Minimal Inhibitory Concentration (MIC). An outline of the steps: as §1
The subject of the next assay is M. morganii DY-1. Description: MIC by agar dilution, M. morganii DY-1. Particulars: Morganella morganii, DY1, 17 h; M. morganii DY-1; agar dilution, Mueller-Hinton agar; read-out: Minimal Inhibitory Concentration (MIC). In outline:
as §1

In assay [3] the test system is Ps. aeruginosa ATCC 10145. Description: MIC by agar dilution, Ps. aeruginosa ATCC 10145. Particulars: Pseudomonas aeruginosa, ATCC10145, 17 h, Mueller-Hinton agar, read-out: Minimal Inhibitory Concentration (MIC). In outline: as §1
A further assay concerns E. coli DY-1. The assay is described as follows: MIC by agar dilution, E. coli DY-1. Particulars: Escherichia coli, DY1, 17 h; E. coli DY-1; agar dilution, Mueller-Hinton agar; read-out: Minimal Inhibitory Concentration (MIC). In outline:
as §1

A further assay concerns E. coli NIHJ JC-2. Description: MIC by agar dilution, E. coli NIHJ JC-2. Particulars: Escherichia coli, NIHJJC2, 17 h; E. coli NIHJ JC-2; agar dilution, Mueller-Hinton agar; read-out: Minimal Inhibitory Concentration (MIC). In outline:
as §1

Assay [4] deals with Ser. marcescens IFO 12648. Description: MIC by agar dilution, Ser. marcescens IFO 12648. Particulars: Serratia marcescens, IFO12648, 17 h; Ser. marcescens IFO 12648; agar dilution, Mueller-Hinton agar; read-out: Minimal Inhibitory Concentration (MIC). An outline of the steps:
as §1

For a further assay, the system named is Ent. cloacae IFO 13535. The assay is described as follows: MIC by agar dilution, Ent. cloacae IFO 13535. Particulars: Enterobacter cloacae, IFO13535, 17 h; Ent. cloacae IFO 13535; agar dilution, Mueller-Hinton agar; read-out: Minimal Inhibitory Concentration (MIC). In outline: as §1
A further assay concerns K. pneumoniae NCTC 9632. The assay is described as follows: MIC by agar dilution, K. pneumoniae NCTC 9632. Conditions: Klebsiella pneumoniae, NCTC9632, 17 h; K. pneumoniae NCTC 9632; agar dilution, Mueller-Hinton agar; read-out: Minimal Inhibitory Concentration (MIC). An outline of the steps: as §1

Take `CO/N=C(\C(=O)N[C@@H]1C(=O)N2C(C(=O)[O-])=C(C[n+]3ccn4c(CO)ccc4c3)CS[C@H]12)c1nsc(N)n1` [Ex. 50, 7-β-[(Z)-2-(5-amino-1,2,4-thiadiazol-3-yl)-2-methoxyiminoacetamido]-3-(6-hydroxymethylpyrrolo[1,2-a]-pyrazinium-2-yl)methyl-3-cephem-4-carboxylate]: the MIC in the assay with Ps. aeruginosa DY-2 was 1.56 µg/mL (≈ 2.86 µM); in the assay on Staph. aureus Smith it was 0.78 µg/mL (≈ 1.43 µM); with Prov. stuartii IFO 12930, not above 0.006 µg/mL; with Staph. aureus C-5113, 1.56 µg/mL (≈ 2.86 µM); in assay [1], 0.05 µg/mL (≈ 0.0918 µM); with Staph. aureus ATCC 6538P, 0.39 µg/mL (≈ 0.716 µM). Besides, the MIC is 12.5 µg/mL (≈ 23 µM) in the assay on Staph. aureus C-57; 0.1 µg/mL (≈ 0.184 µM) in the assay with B. subtilis ATCC 6633; not above 0.006 µg/mL with Ent. aerogenes IFO 12979; 0.78 µg/mL (≈ 1.43 µM) in the assay on Staph. aureus C-5216; not above 0.006 µg/mL in the assay on E. coli No. 29; 0.012 µg/mL (≈ 0.022 µM) with P. vulgaris NCTC 8313. The MIC is 0.1 µg/mL (≈ 0.184 µM) in [2]; 0.012 µg/mL (≈ 0.022 µM) in the assay on M. morganii DY-1; 0.78 µg/mL (≈ 1.43 µM) in [3]; not above 0.006 µg/mL with E. coli DY-1; not above 0.006 µg/mL in the assay with E. coli NIHJ JC-2; 0.012 µg/mL (≈ 0.022 µM) in assay [4]. The MIC in the assay with Ent. cloacae IFO 13535 stood at 0.05 µg/mL (≈ 0.0918 µM); in the assay with K. pneumoniae NCTC 9632, 0.012 µg/mL (≈ 0.022 µM).
In the case of `CON=C(C(=O)NC1C(=O)N2C(C(=O)[O-])=C(C[n+]3ccn4c([N+](=O)[O-])ccc4c3)CSC12)c1csc(N)n1` (stereo not drawn) [Ex. 14, 7-β-[(Z)-2-(2-aminothiazol-4-yl)-2-methoxyiminoacetamido]-3-(6-nitropyrrolo[1,2-a]pyrazinium-2-yl)methyl-3-cephem-4-carboxylate], the MIC with Ps. aeruginosa DY-2 was 25 µg/mL (≈ 44.8 µM); in the assay on Staph. aureus Smith it was 1.56 µg/mL (≈ 2.79 µM); with Prov. stuartii IFO 12930 it was not above 0.006 µg/mL; in the assay on Staph. aureus C-5113, 3.13 µg/mL (≈ 5.6 µM); in assay [1] it was 0.05 µg/mL (≈ 0.0895 µM); with Staph. aureus ATCC 6538P, 0.39 µg/mL (≈ 0.698 µM). The MIC is 25 µg/mL (≈ 44.8 µM) in the assay with Staph. aureus C-57; 0.39 µg/mL (≈ 0.698 µM) with B. subtilis ATCC 6633; 0.05 µg/mL (≈ 0.0895 µM) in the assay with Ent. aerogenes IFO 12979; 1.56 µg/mL (≈ 2.79 µM) in the assay on Staph. aureus C-5216; 0.05 µg/mL (≈ 0.0895 µM) with E. coli No. 29; 0.012 µg/mL (≈ 0.0215 µM) with P. vulgaris NCTC 8313. Moreover, the MIC in assay [2] was 1.56 µg/mL (≈ 2.79 µM); in the assay with M. morganii DY-1 it was 0.05 µg/mL (≈ 0.0895 µM); in assay [3], 6.25 µg/mL (≈ 11.2 µM); in the assay on E. coli DY-1 it was 0.05 µg/mL (≈ 0.0895 µM); in the assay with E. coli NIHJ JC-2 it was 0.1 µg/mL (≈ 0.179 µM); in assay [4] it was 0.1 µg/mL (≈ 0.179 µM). Besides, the results for the MIC in the assay on Ent. cloacae IFO 13535 and in the assay on K. pneumoniae NCTC 9632 were 0.78 µg/mL (≈ 1.4 µM) and 0.05 µg/mL (≈ 0.0895 µM), respectively.
`CCON=C(C(=O)NC1C(=O)N2C(C(=O)[O-])=C(C[n+]3ccn4c(Cl)ccc4c3)CSC12)c1csc(N)n1` (stereo not drawn) [Ex. 12, 7-β-[(Z)-2-(2-aminothiazol-4-yl)-2-ethoxyiminoacetamido]-3-(6-chloropyrrolo[1,2-a]pyrazinium-2-yl)methyl-3-cephem-4-carboxylate]: the MIC came to 6.25 µg/mL (≈ 11.1 µM) with Ps. aeruginosa DY-2; 0.39 µg/mL (≈ 0.694 µM) in the assay with Staph. aureus Smith; 0.025 µg/mL (≈ 0.0445 µM) with Prov. stuartii IFO 12930; 0.78 µg/mL (≈ 1.39 µM) in the assay on Staph. aureus C-5113; 0.05 µg/mL (≈ 0.089 µM) in [1]; 0.2 µg/mL (≈ 0.356 µM) in the assay on Staph. aureus ATCC 6538P. Moreover, the MIC in the assay on Staph. aureus C-57 was determined as 12.5 µg/mL (≈ 22.2 µM); in the assay with B. subtilis ATCC 6633, 0.1 µg/mL (≈ 0.178 µM); in the assay with Ent. aerogenes IFO 12979, 0.025 µg/mL (≈ 0.0445 µM); in the assay with Staph. aureus C-5216 it was 0.78 µg/mL (≈ 1.39 µM); with E. coli No. 29 it was 0.012 µg/mL (≈ 0.0214 µM); in the assay on P. vulgaris NCTC 8313 it was 0.012 µg/mL (≈ 0.0214 µM). Moreover, the MIC came out at 0.39 µg/mL (≈ 0.694 µM) in assay [2]; 0.025 µg/mL (≈ 0.0445 µM) in the assay with M. morganii DY-1; 1.56 µg/mL (≈ 2.78 µM) in assay [3]; 0.012 µg/mL (≈ 0.0214 µM) in the assay with E. coli DY-1; 0.05 µg/mL (≈ 0.089 µM) with E. coli NIHJ JC-2; 0.025 µg/mL (≈ 0.0445 µM) in [4]. Moreover, the MIC in the assay with Ent. cloacae IFO 13535 stood at 0.39 µg/mL (≈ 0.694 µM); in the assay on K. pneumoniae NCTC 9632 it was 0.025 µg/mL (≈ 0.0445 µM).
